Measured values reported in publication PMC10147923, “Pain-causing stinging nettle toxins target TMEM233 to modulate NaV1.7 function” (Nature Communications, 2023).
“And” between values parts separate entries of the source, which are not always exact repeats. Equal values may be shown once. Read-outs that look alike come from different tables or passages of the source. Positions of bridges follow the written chain, without caps; N, C: chain ends. Residues, ends and D or L forms follow the SMILES beside them. *: point of attachment. Biotin = O=C1N[C@H]2[C@H](CS[C@H]2CCCCC(=O)*)N1; PEG4 = NCCOCCOCCOCCOCCC(=O)O

Tests used:
[1] = molecular target: T1, NaV1.7/TMEM233 (Homo sapiens, UniProt B4DJY2+Q15858); assay type: cell-based; details: best-fit value, log(agonist) vs. response -- variable slope (four parameters)
Procedure: HEK293-NaV1.7 cells were transfected with TMEM233, CRELD1, LMAN2L, MMGT1, RNF121 and STT3B and co-transfected with five plasmids coding for the Glycosylphosphatidylinositol (GPI) complex (GPAA1, PIGK, PIGS, PIGU, PIGT) using Lipofectamine 2000. After 24 h, transfected cells were harvested and plated at a density of 10,000–15,000 cells per well on black-walled 384-well imaging plates. Plated cells were cultured for a further 24 h at 37 °C and 5% CO2. FLIPR (Fluorescent Imaging Plate Reader) Red membrane potential assay dye (Molecular Devices, California, USA) was diluted in physiological salt solution according to the manufacturer’s instructions (PSS, in mM: NaCl 140, glucose 11.5, HEPES 10, KCl 5.9, MgCl2 1.4, NaH2PO4 1.2, NaHCO3 5, CaCl2 1.8, pH 7.4). Growth medium was removed from the plate and replaced with 20 µL of FLIPR Red membrane potential assay dye per well and incubated in the dark at 37 °C for 60 min. […] Fluorescence responses to ExTxA were computed as the maximum change in fluorescence over baseline (ΔF/F0) using ScreenWorks (Molecular Devices, Version 5.1.2.94).

[2] = tested on: total and TTX-s NaV current in wild-type DRG neurons; assay: Persistent total NaV current, manual patch clamp, mouse DRG neurons; assay type: cell-based
[3] = molecular target: T2, NaV1.7 (Homo sapiens, UniProt Q15858); assay type: cell-based
T2 sequence (Q15858 whole entry): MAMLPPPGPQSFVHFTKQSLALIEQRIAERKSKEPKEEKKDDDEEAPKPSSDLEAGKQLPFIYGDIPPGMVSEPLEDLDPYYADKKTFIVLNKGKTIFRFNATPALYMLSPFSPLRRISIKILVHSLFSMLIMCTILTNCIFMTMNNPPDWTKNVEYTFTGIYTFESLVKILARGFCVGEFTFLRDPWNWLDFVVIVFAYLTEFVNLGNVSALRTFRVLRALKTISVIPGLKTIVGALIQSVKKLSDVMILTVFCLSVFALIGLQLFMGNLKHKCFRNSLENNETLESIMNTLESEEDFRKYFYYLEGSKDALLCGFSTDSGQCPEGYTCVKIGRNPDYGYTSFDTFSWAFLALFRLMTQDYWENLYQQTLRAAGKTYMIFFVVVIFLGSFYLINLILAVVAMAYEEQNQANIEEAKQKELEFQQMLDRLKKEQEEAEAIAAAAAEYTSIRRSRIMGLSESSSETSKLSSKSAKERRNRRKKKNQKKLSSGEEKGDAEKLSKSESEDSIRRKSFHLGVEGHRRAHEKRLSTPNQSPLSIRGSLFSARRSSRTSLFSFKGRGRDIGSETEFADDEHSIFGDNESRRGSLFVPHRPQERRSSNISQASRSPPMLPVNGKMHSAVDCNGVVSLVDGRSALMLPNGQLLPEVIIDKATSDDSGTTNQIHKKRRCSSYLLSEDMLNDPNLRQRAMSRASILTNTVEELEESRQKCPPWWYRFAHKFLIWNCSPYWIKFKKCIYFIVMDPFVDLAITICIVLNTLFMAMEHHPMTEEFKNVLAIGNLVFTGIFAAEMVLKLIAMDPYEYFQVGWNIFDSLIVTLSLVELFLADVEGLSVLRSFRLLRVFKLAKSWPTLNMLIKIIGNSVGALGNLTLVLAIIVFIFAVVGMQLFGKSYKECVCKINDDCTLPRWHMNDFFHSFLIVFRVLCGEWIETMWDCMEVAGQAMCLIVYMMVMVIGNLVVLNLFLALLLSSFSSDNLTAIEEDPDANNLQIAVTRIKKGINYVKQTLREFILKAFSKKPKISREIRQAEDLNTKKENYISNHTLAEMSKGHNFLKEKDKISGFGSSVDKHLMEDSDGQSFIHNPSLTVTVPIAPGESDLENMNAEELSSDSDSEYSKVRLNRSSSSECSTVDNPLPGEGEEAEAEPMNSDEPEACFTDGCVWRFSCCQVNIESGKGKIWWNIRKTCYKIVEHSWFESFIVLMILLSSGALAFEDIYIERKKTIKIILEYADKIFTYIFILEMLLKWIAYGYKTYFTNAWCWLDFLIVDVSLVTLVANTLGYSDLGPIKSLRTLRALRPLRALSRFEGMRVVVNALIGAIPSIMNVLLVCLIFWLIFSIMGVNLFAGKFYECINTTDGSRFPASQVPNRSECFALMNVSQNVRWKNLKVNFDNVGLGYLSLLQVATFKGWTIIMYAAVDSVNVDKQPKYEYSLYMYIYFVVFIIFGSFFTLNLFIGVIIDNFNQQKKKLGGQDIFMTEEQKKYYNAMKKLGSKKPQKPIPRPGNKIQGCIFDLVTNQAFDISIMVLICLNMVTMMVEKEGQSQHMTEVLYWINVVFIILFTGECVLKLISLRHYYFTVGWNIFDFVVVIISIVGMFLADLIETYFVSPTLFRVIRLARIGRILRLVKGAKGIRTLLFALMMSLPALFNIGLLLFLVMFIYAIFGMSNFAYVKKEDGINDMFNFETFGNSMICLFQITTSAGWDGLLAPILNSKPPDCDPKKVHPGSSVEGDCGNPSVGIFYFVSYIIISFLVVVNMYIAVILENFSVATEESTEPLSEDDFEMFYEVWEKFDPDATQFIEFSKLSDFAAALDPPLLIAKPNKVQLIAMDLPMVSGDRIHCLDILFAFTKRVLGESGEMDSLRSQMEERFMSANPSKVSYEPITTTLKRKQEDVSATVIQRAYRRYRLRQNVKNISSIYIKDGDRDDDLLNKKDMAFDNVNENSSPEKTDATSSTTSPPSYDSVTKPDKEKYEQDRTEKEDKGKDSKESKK
T2 sequence (Q07699 19-218, further chain): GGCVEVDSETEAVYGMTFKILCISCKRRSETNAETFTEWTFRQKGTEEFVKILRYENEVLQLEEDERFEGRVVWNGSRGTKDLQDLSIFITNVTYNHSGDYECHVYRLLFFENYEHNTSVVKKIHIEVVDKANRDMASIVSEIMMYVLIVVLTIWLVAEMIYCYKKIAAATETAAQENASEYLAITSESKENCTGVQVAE

[4] = tested on: NaV1.7 endogenously expressed in TE-671 cells; assay: Persistent NaV current, TE-671 cells (automated patch clamp); assay type: cell-based
[5] = molecular target: T1, NaV1.7/TMEM233; assay: Proximity ligation assay NaV1.7 and TMEM233; details: Fig 5e
Procedure: HEK293 cells stably expressing β1/β2 were transiently transfected in T25 flasks using Lipofectamine 2000 with plasmids encoding GFP (0.35 μg) as a transfection control, as well as N-terminal HA-tagged TMEM233 (0.35 μg) and N-terminal FLAG- tagged NaV1.7 (1.0 μg) alone or in combination. The total amount of plasmid DNA/T25 flask was kept constant at 1.7 μg flask using empty pcDNA3.1 plasmid as required. After 24 h incubation at 37 °C, cells were plated on PDL-coated glass coverslips and cultured for a further 24 h. Cells were washed once using sterile phosphate-buffered saline, fixed with 4% formaldehyde for 5 min, permeabilized with 0.1% Triton-X 100 in PSS, blocked using proximity ligation bocking buffer (Sigma DUO82007) and incubated for 1 h with anti-FLAG (1:1000; Sigma F1804) and anti-HA (1:1000; Sigma H6908) antibodies in Duolink antibody diluent. Permeabilized cells were then washed twice with wash buffer A at room temperature for 5 min. Anti-mouse PLUS (Sigma DUO92001) and anti-rabbit MINUS (Sigma DUO92005) probes were diluted 1:5 in Duolink antibody diluent and incubated with cells for 1 h at 37 °C. Cells were then washed with wash buffer A at room temperature for 5 min twice and incubated with ligase diluted 1:40 in ligation buffer. After incubation at 37 °C for 30 mins, cells were washed twice with wash buffer A. Polymerase was diluted 1:80 in amplification buffer and incubated with cells for 100 mins at 37 °C. Cells were subsequently washed with wash buffer B twice for 10 mins and mounted with Duolink In Situ mounting media with DAPI. Cells were imaged on a Zeiss AxioImage M2 with Apotome2 and Axiocam 506 camera. Proximity ligation assay signal (PLA particles) in GFP-positive cells were quantified using ImageJ in collapsed stacks from 3–6 random images obtained per coverslip (Image>Type>8-bit; Image>Adjust>Threshold; Image>Analyze>Analyze Particles). Particles size was set to 0.0003–∞ and circularity to 0.00–1.00. The average number of particles/GFP-positive cells from three independent experiments was analyzed by One-way ANOVA.

[6] = molecular target: T2, NaV1.7; assay: Recovery from fast inactivation, HEK293-NaV1.7 with peptide in intracellular solution; assay type: cell-based
Procedure: To determine recovery from fast inactivation, a 20 ms pulse to 0 mV from a holding potential of −90 mV was used to induce fast inactivation. A subsequent recovery period, ranging from 1 ms to 2216 ms in 50% increments at −90 mV, was followed by a last 20 ms test pulses to 0 mV to determine the time-dependence of recovery from fast inactivation. The proportion of available channels was determined by normalizing peak currents from the last to the first pulse. A two-phase exponential equation was fit to the normalized current, plotted as a function of time, to determine the time constants τ1 and τ2 of recovery from fast inactivation.

[7] = tested on: TE-671 cells; details: veratridine 5 µM, ouabain 20 nM
[8] = molecular target: T2, NaV1.7; assay: ExTxA-488 binding assay, NaV1.7
Procedure: (§1) HEK293 cells (untransfected controls, or transfected with TMEM233, NaV1.7 or both TMEM233 and NaV1.7), were incubated in suspension with ExTxA conjugated to Alexa Fluor 488 (ExTxA-488) in assay buffer (250 mM NaCl, 25 mM HEPES, pH 7) for 30 min at 4 °C. Unbound ExTxA-488 was removed by washing cells three times with assay buffer. Cells were plated at a density of 100,000 cells per well in a volume of 50 µL in a 384-well OptiPlate (PerkinElmer, Massachusetts, USA). Fluorescence intensity (excitation 490 nm; emission 520 nm) was assessed using an Infinite M1000 Pro (Tecan, Männedorf, Switzerland). Concentration-response curves were fitted using the log (agonist) vs. response—variable slope (four parameters) equation and normalized to the largest fitted top from amongst the four groups as computed by GraphPad Prism Version 9.4.1.

[9] = tested on: HEK293 cells; assay: ExTxA-488 binding assay, untransfected/mock HEK293; design: species or system human
Procedure: as §1

[10] = molecular target: T1, NaV1.7/TMEM233; assay: ExTxA-488 binding assay, NaV1.7/TMEM233
Procedure: as §1

[11] = molecular target: TMEM233 (Homo sapiens, UniProt B4DJY2); assay: ExTxA-488 binding assay, TMEM233
TMEM233, sequence (B4DJY2 whole entry): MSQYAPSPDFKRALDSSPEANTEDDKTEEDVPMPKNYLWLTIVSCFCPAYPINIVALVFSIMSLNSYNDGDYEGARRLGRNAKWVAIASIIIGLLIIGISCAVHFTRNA
Procedure: as §1

[12] = molecular target: T1, NaV1.7/TMEM233; assay type: cell-based

CC[C@H](C)[C@@H]1NC(=O)[C@H](CCCNC(=N)N)NC(=O)[C@H](Cc2ccccc2)NC(=O)[C@H](CC(C)C)NC(=O)[C@H](CO)NC(=O)[C@@H]2CSSC[C@@H]3NC(=O)[C@H]([C@@H](C)O)NC(=O)[C@H](CSSC[C@H](NC(=O)[C@H](CCCNC(=N)N)NC(=O)[C@@H]4CCCN4C(=O)[C@H](CC(C)C)NC(=O)CCOCCOCCOCCOCCNC(=O)CCCC[C@@H]4SC[C@@H]5NC(=O)N[C@@H]54)C(=O)N[C@@H](CC(=O)O)C(=O)N[C@@H](CO)C(=O)N4CCC[C@H]4C(=O)N[C@@H](Cc4ccccc4)C(=O)N2)NC(=O)[C@H](CCCCN)NC(=O)[C@H](CC(=O)O)NC(=O)CNC(=O)[C@H](CSSC[C@@H](C(=O)N[C@H](C(=O)N2CCC[C@H]2C(=O)N[C@@H](CC(=O)O)C(=O)N[C@H](C(=O)O)C(C)C)C(C)C)NC(=O)[C@H](CC(C)C)NC(=O)CNC(=O)[C@H](Cc2ccccc2)NC(=O)[C@H]([C@@H](C)CC)NC(=O)[C@@H]2CCCN2C(=O)[C@H](CC(C)C)NC(=O)[C@@H]2CCCN2C(=O)[C@H](C(C)C)NC3=O)NC(=O)[C@H](CC(C)C)NC(=O)CNC1=O [ExTxA-Biotin] ({Biotin-PEG4}-LPRCDSPFCSLFRIGLCGDKCTCVPLPIFGLCVPDV-OH; disulfide 4-21, 9-23, 17-32)
Bottom [1]: -0.001461
HillSlope [1]: 0.9303
LogEC50 [1]: -6.256
Span [1]: 0.7803
Top [1]: 0.7788

NC1=N[C@H](O)[C@H]2[C@H]3O[C@]4(O)O[C@@H]([C@@H](O)[C@@]2(N1)[C@@H]4O)[C@]3(O)CO [TTX, tetrodotoxin, reference compound]
Mean Diff. of persistent current, ExTxA vs. ExTxA + TTX [2]: 0.5123
Mean Diff. of persistent current, ExTxA vs. TTX [3]: 0.1483
Mean Diff. of persistent current, ExTxA vs. ExTxA + TTX [4]: 0.2464

FLAG-NaV1.7
particles/cell, mean ([5]; mean of n = 3): 5.245 particles/cell
particles/cell ([5]; replicate 1): 1.95 particles/cell
particles/cell ([5]; replicate 2): 7.467 particles/cell
particles/cell ([5]; replicate 3): 6.319 particles/cell

1-41 TMEM233 (MSQYAPSPDFKRALDSSPEANTEDDKTEEDVPMPKNYLWLT; UniProt B4DJY2 1-41, looked up, fragment)
Tau Fast, difference between means (1-41 TMEM233 - BSA control) ± SEM [6]: 3.270 ± 1.361
Tau Fast, individual values [6]: 5.876 and 7.835 and 7.406 and 14.82 and 9.055 and 12.01 and 6.932 and 17.51 and 10.21
Tau Fast, mean [6]: 10.18

COc1ccc(C(=O)O[C@H]2CC[C@@]3(C)[C@@H]4CC[C@H]5[C@]6(O)C[C@H](O)[C@@]7(O)[C@@H](CN8C[C@@H](C)CC[C@H]8[C@@]7(C)O)[C@]6(O)C[C@@]53O[C@]24O)cc1OC [veratridine, reference compound]
cytotoxicity of the concentration used [7]: non-cytotoxic

CC[C@H](C)[C@@H]1NC(=O)[C@H](CCCNC(=N)N)NC(=O)[C@H](Cc2ccccc2)NC(=O)[C@H](CC(C)C)NC(=O)[C@H](CO)NC(=O)[C@@H]2CSSC[C@@H]3NC(=O)[C@H]([C@@H](C)O)NC(=O)[C@H](CSSC[C@H](NC(=O)[C@H](CCCNC(=N)N)NC(=O)[C@@H]4CCCN4C(=O)[C@H](CC(C)C)NC(=O)[C@@H](N)CCCCn4cc(CNC(=O)c5ccc(-c6c7ccc(=N)c(S(=O)(=O)O)c-7oc7c(S(=O)(=O)O)c(N)ccc67)c(C(=O)O)c5)nn4)C(=O)N[C@@H](CC(=O)O)C(=O)N[C@@H](CO)C(=O)N4CCC[C@H]4C(=O)N[C@@H](Cc4ccccc4)C(=O)N2)NC(=O)[C@H](CCCCN)NC(=O)[C@H](CC(=O)O)NC(=O)CNC(=O)[C@H](CSSC[C@@H](C(=O)N[C@H](C(=O)N2CCC[C@H]2C(=O)N[C@@H](CC(=O)O)C(=O)N[C@H](C(=O)O)C(C)C)C(C)C)NC(=O)[C@H](CC(C)C)NC(=O)CNC(=O)[C@H](Cc2ccccc2)NC(=O)[C@H]([C@@H](C)CC)NC(=O)[C@@H]2CCCN2C(=O)[C@H](CC(C)C)NC(=O)[C@@H]2CCCN2C(=O)[C@H](C(C)C)NC3=O)NC(=O)[C@H](CC(C)C)NC(=O)CNC1=O [Alexa488-ExTxA]
Max fluorescence ([8]; Alexa488-ExTxA 1 µM, NaV1.7, mean ± SEM, n = 3): 20,583 ± 3970 AFU
HillSlope ([8]; Nav1.7, four-parameter fit, Top = 1): 0.7934
LogEC50 ([8]; Nav1.7, four-parameter fit, Top = 1, 95% CI -5.409 to -4.797): -5.142
Max fluorescence ([9]; Alexa488-ExTxA 1 µM, HEK293, mean ± SEM, n = 3): 15,740 ± 2133 AFU
HillSlope ([9]; Untransfected, four-parameter fit, Top = 1): 0.9756
LogEC50 ([9]; Untransfected, four-parameter fit, Top = 1, 95% CI -5.502 to -5.307): -5.409
HillSlope [10]: 1.366
LogEC50 [10]: -6.833
Max fluorescence ([10]; Alexa488-ExTxA 1 µM, NaV1.7/TMEM233, mean ± SEM, n = 3): 38,799 ± 2471 AFU
Bottom [1]: 2.016e-5
HillSlope [1]: 1.084
LogEC50 [1]: -7.29
Span [1]: 0.8012
Top [1]: 0.8013
HillSlope [11]: 1.703
LogEC50 [11]: -6.917
Max fluorescence ([11]; Alexa488-ExTxA 1 µM, TMEM233, mean ± SEM, n = 3): 38,681 ± 951.2 AFU
Best-fit parameter Bottom [12]: 0.00002
Best-fit parameter Hill slope [12]: 1.084
Best-fit parameter Top [12]: 0.8013
functional activity of tagged ExTxA [12]: retained functional activity

C[C@@H]1O[C@@H](O[C@H]2C[C@@H](O)[C@]3(CO)[C@H]4[C@H](O)C[C@]5(C)[C@@H](C6=CC(=O)OC6)CC[C@]5(O)[C@@H]4CC[C@]3(O)C2)[C@H](O)[C@H](O)[C@H]1O [ouabain, reference compound]
cytotoxicity of the concentration used [7]: non-cytotoxic

BSA control
Tau Fast, individual values [6]: 7.097 and 5.916 and 7.352 and 7.278 and 4.563 and 7.588 and 6.382 and 7.242 and 8.803
Tau Fast, mean [6]: 6.913
